Data as given in patent US4764525A, “N-1H-tetrazol-5-ylbenzamides having use as antiallergy and antiinflammatory agents” (Warner-Lambert Company, priority 1987, dated 1988).

These molecules were tested on human basophils (assay: HHB assay: inhibition of histamine release from human basophils). Details: Anti-IgE stimulus, tested at 33 μM.
Format: cell-based
From the text: The HHB assay quantitates active histamine release and its inhibition by drugs, from basophils of human blood. Thus, the assay provides evaluation of the compounds of formula I for treating the conditions or diseases as is the present invention. As described herein the assay includes modifications of the method described by R. P. Siroganian in "An Automated Continuous-Flow System for the Extraction and Fluorometric Analysis of Histamine," Anal. Biochem., 57, 383-394 (1974).
Seventy ml of blood are drawn from allergic donors (chosen on the basis of adequate histamine induced by a challenge), using standard venipuncture methods, into 10 ml Vacutainers with 0.08 ml/tube 15% EDTA in water as anticoagulant. The blood samples are placed briefly on a rotary mixer. All glassware contacting the blood is siliconized. The blood is aliquoted into three plastic 50 ml centrifuge tubes and the volume is noted. Hespan (hydroxy ethyl starch), 0.5 ml per 1.0 ml of blood, is added. The tubes are inverted several times to mix and are left undisturbed at room temperature until a sharp separation is observed between the settled red cells and the leukocyte and platelet-rich plasma. This usually occurs within 35-45 minutes.
The plasma fraction is pipetted off and placed into two clean plastic 50 ml centrifuge tubes. The tubes are centrifuged for 12 minutes at 4° C. in a a 100 ml volumetric flask and 0.5 ml DMSO is added. […] If the compound is in solution, distilled water is used to bring it up to 100 ml total volume. If the drug is not in solution, 0.2 ml 1N NaOH (or HCl) is added, and then distilled water is added to yield 100 ml total solution. Five ml of the stock solution is diluted (1:2) with 5 ml of two times concentrated HACM buffer to yield the stock working concentration of 150 μM. When added to the cells and stimulus, a final test concentration of 100 μM drug results (400 μl drug, 100 μcells and 100 μchallenge agent or vehicle). Further dilutions are made with HACM buffer for 33, 10, 3.3, 1.0 μM, etc.
Short ragweed and house dust extracts (Greer Laboratories, Inc.) are supplied as aqueous extracts in stock concentrations of 40,000 and 10,000 protein nitrogen units per milliliter (PNU/ml), respectively. Aqueous solutions of anti-IgE antisera (rabbit-raised antibody) are purchased from Dako via Accurate Chemicals. The tripeptide f-met-leu-phe (fmlp) from Vega Biochemicals is used. The aqueous solutions of ragweed, house dust, and anti-IgE are diluted 1:2 with two times concentrated HACM and then further diluted with HACM to yield final stock concentrations of 6000 PNU/ml for ragweed and house dust, and a 1:50 dilution for the anti-IgE antisera. […]
COc1ccc(C(=O)Nc2nnn[nH]2)c(OC(C)C)c1Br [Example 2, 3-Bromo-4-methoxy-2-(1-methylethoxy)-N-1H-tetrazol-5-ylbenzamide] was tested, and the inhibition at 33 µM was 60%.
Molecule COc1cc(OC(C)C)c(C(=O)Nc2nnn[nH]2)cc1Br [Example 3, 5-Bromo-4-methoxy-2-(1-methylethoxy)-N-1H-tetrazol-5-ylbenzamide] has an inhibition at 33 µM of 28%.
With COc1ccc(C(=O)Nc2nnn[nH]2)c(OC(C)C)c1I [Example 4, 3-Iodo-4-methoxy-2-(1-methylethoxy)-N-1H-tetrazol-5-ylbenzamide] the inhibition at 33 µM was 73%.
COc1ccc(C(=O)Nc2nnn[nH]2)c(OC(C)C)c1 [Example 1, 4-Methoxy-2-(1-methylethoxy)-N-1H-tetrazol-5-ylbenzamide] showed an inhibition at 33 µM of 41%.
